{"source": "patent US10576050B2", "about": "“Methods and compositions for treatment of cancer” (ONCONOVA THERAPEUTICS, INC., priority 2012, dated 2020)", "key": {"[1]": {"test": "Dose escalation of oral Rigosertib twice daily in patients with refractory solid tumors", "format": "in vivo, human", "conditions": "BID continuously, 25 patients", "experimental": "Twenty-five patients with histologically confirmed solid tumors refractory to standard therapy were given escalating doses of oral Rigosertib twice daily. Doses were increased according to a schedule until the appearance of grade 2 or grade 3/4 toxicities. The maximum tolerated dose (MTD) of oral Rigosertib administered twice daily continuously is 560 mg BID. Dysuria was identified as a potential dose-limiting adverse event and a reported toxicity. […] The antitumor activity in this study supported past observations of Rigosertib efficacy in other solid tumor clinical trials. Pharmacokinetic (PK) data reveal plasma levels with oral Rigosertib were above the predicted pharmacodynamically active levels. Final safety and efficacy results, plasma and urinary PK relationships, and mutational analyses from archival tissue are presented"}, "[2]": {"test": "Phase I/II study of Rigosertib continuous IV infusion in relapsed or refractory AML or transformed MPN", "conditions": "for concentration at 6 h: human, in vivo, 2400 mg/day, average plasma levels, 2400 mg/day CIV", "experimental": "(§1) Methods: The patients were >18 years of age with relapsed or refractory AML or transformed myeloproliferative neoplasms (MPN). Patients were given Rigosertib by continuous IV infusions over 24 hours with a fixed dose of 2400 mg/day either for 72 hrs or 120 hrs every other week using a standard dose escalation scheme. A blood sample was withdrawn at 6 hrs after the start of infusion during cycle 1 and cycle 2 to assess the plasma concentration of Rigosertib. The study was subsequently amended and, after 2 cycles of IV Rigosertib (each cycle being 2 weeks) patients received Rigosertib orally, 560 mg twice a day continuously for 20 weeks. The objectives of Phase I study were to define maximum tolerated dose (MTD), dose limiting toxicities (DLT), and identify all toxicities and anti-leukemia activity. Phase II primary objective was to determine the clinical efficacy; secondary objectives were to assess time to response or progression, duration of response and overall survival at 6 months.\nas §1, with “Patients with” for “Methods: The patients were >18 years of age with”, “neoplasms (MPN)” for “neoplasms (MPN). Patients”, “hours (hrs)” for “hours”, “of phase 1” for “of Phase I”, “(DLT),” for “(DLT), and”, “Phase 2” for “Phase II”"}, "[3]": {"test": "Phase II randomized two-arm study of oral Rigosertib (560 mg bid, intermittent or continuous) in transfusion-dependent lower risk MDS patients", "conditions": "for median duration of treatment: FIG. 5", "experimental": "Methods: This is a randomized, two-arm study of oral Rigosertib (560 mg bid) administered either intermittently (2 out of 3 weeks) or continuously. Transfusion-dependent patients received at least 4 units RBC transfusions over 8 weeks before randomization as well as transfusions and erythrocyte stimulating agents (ESAs) while on study.\nThe study design in low or independent transfusion-dependent MDS patients: 43 patients enrolled and randomized 1:1 in two groups. The first group was administered 560 mg capsules BID in days 1-14 of 21 day cycle. The second group was administered 560 mg capsules BID in days 1-21 of 21 day cycle. […] The protocol was amended for the […] on intermittent dosing.\nIn these cases 560 mg bid dosing was replaced with 560 mg am (30 min+ before breakfast) and 280 mg 2 hs+ after lunch and 30 min+ before dinner. Dysuria questionnaire (American Urological Association) was provided to all patients at baseline, 3 weeks and every 3 cycles thereafter and recommend for vigorous hydration and bicarbonate prn.\nThe ongoing phase II trial 09-05 is designed to evaluate oral Rigosertib as a single agent in transfusion-dependent lower risk MDS patients. This trial is a randomized, two-arm study of oral Rigosertib (560 mg bid) administered either intermittently (2 out of 3 weeks) or continuously. Transfusion-dependent patients must have received at least 4 units of RBC transfusions over 8 weeks before randomization and can receive transfusions and erythrocyte stimulating agents (ESAs) while on study."}, "[4]": {"conditions": "34 patients dosed intermittently"}, "[5]": {"conditions": "individual transfusion responders"}}, "note": "Values joined by “and” are separate entries in the source; they are usually repeats but may differ in a detail not shown here. Identical values can stand only once.", "data": [{"smiles": "COc1cc(OC)c(/C=C/S(=O)(=O)Cc2ccc(OC)c(NCC(=O)[O-])c2)c(OC)c1.[Na+]", "note": "[Rigosertib, sodium (E)-2-{2-methoxy-5-[(2′,4′,6′-trimethoxystyrylsulfonyl)methyl]phenylamino}acetate]", "values": [{"measurement": "maximum tolerated dose (MTD)", "setting": "[1]", "value": 560, "unit": "mg"}, {"measurement": "patients with transient hematologic response with improvement of platelets", "setting": "[2]; 4 patients", "value": 16, "unit": "%"}, {"measurement": "absolute reduction of peripheral blasts (best response, stabilization of disease)", "setting": "[2]; after 2 cycles", "value": "> 50", "unit": "%"}, {"measurement": "patients with stabilization of disease with >50% absolute reduction of peripheral blasts", "setting": "[2]; after 2 cycles, 2/25 patients", "value": 8, "unit": "%"}, {"measurement": "patients with peripheral blasts maintained at +/−10% of pretreatment level", "setting": "[2]; after 2 cycles, 4 patients", "value": 16, "unit": "%"}, {"measurement": "concentration at 6 h", "setting": "[2]; week 1, 6 hrs after start of infusion", "value": "9.2 ± 5.05", "unit": "µM"}, {"measurement": "concentration at 6 h", "setting": "[2]; week 3, 6 hrs after start of infusion", "value": "9.81 ± 6.7", "unit": "µM"}, {"measurement": "toxicity profile", "setting": "[2]; main adverse event transient AMS (altered mental status)", "value": "acceptable toxicity profile"}, {"measurement": "DLT dose", "setting": "[2]; over 24 hrs", "value": 2400, "unit": "mg"}, {"measurement": "MTD", "setting": "[2]; over 24 hrs for 3 days, CIV", "value": 2400, "unit": "mg"}, {"measurement": "overall tolerability of oral Rigosertib", "setting": "[3]; 560 mg bid", "value": "well tolerated"}, {"measurement": "patients achieving TI, intent-to-treat analysis", "setting": "[3]; 14/39 patients, intermittent dosing", "value": 36, "unit": "%"}, {"measurement": "patients achieving transfusion independence", "setting": "[3]; 15 patients treated with intermittent dosing for at least 8 weeks", "value": 47, "unit": "%"}, {"measurement": "median duration of transfusion independence", "setting": "[3]; 15 responders, intermittent dosing (conclusion)", "value": 17, "unit": "weeks"}, {"measurement": "patients achieving TI, intent-to-treat analysis", "setting": "[3]; 17/48 patients (conclusion)", "value": 35, "unit": "%"}, {"measurement": "patients with transfusion independence", "setting": "[3]; 26 evaluable patients (8 wks+ treatment), intermittent 560 mg bid, FIG. 9", "value": "50% and 46%"}, {"measurement": "Abdominal Pain/discomfort, GRADE 2 incidents", "setting": "[3]; [4]", "value": 1}, {"measurement": "Abdominal Pain/discomfort, GRADE 3 incidents", "setting": "[3]; [4]", "value": 0}, {"measurement": "Abdominal Pain/discomfort, TOTAL %", "setting": "[3]; [4]", "value": 3, "unit": "%"}, {"measurement": "Diarrhea, GRADE 2 incidents", "setting": "[3]; [4]", "value": 1}, {"measurement": "Diarrhea, GRADE 3 incidents", "setting": "[3]; [4]", "value": 0}, {"measurement": "Diarrhea, TOTAL %", "setting": "[3]; [4]", "value": 3, "unit": "%"}, {"measurement": "Fatigue, GRADE 2 incidents", "setting": "[3]; [4]", "value": 5}, {"measurement": "Fatigue, GRADE 3 incidents", "setting": "[3]; [4]", "value": 0}, {"measurement": "Fatigue, TOTAL %", "setting": "[3]; [4]", "value": 15, "unit": "%"}, {"measurement": "Hematuria or Cytitis, GRADE 2 incidents", "setting": "[3]; [4]", "value": 1}, {"measurement": "Hematuria or Cytitis, GRADE 3 incidents", "setting": "[3]; [4]", "value": 5}, {"measurement": "Hematuria or Cytitis, TOTAL %", "setting": "[3]; [4]", "value": 18, "unit": "%"}, {"measurement": "Insomnia, GRADE 2 incidents", "setting": "[3]; [4]", "value": 1}, {"measurement": "Insomnia, GRADE 3 incidents", "setting": "[3]; [4]", "value": 0}, {"measurement": "Insomnia, TOTAL %", "setting": "[3]; [4]", "value": 3, "unit": "%"}, {"measurement": "Nausea, GRADE 2 incidents", "setting": "[3]; [4]", "value": 3}, {"measurement": "Nausea, GRADE 3 incidents", "setting": "[3]; [4]", "value": 0}, {"measurement": "Nausea, TOTAL %", "setting": "[3]; [4]", "value": 9, "unit": "%"}, {"measurement": "Neutropenia, GRADE 2 incidents", "setting": "[3]; [4]", "value": 2}, {"measurement": "Neutropenia, GRADE 3 incidents", "setting": "[3]; [4]", "value": 2}, {"measurement": "Neutropenia, TOTAL %", "setting": "[3]; [4]", "value": 6, "unit": "%"}, {"measurement": "Urinary urgency, GRADE 2 incidents", "setting": "[3]; [4]", "value": 12}, {"measurement": "Urinary urgency, GRADE 3 incidents", "setting": "[3]; [4]", "value": 0}, {"measurement": "Urinary urgency, SAE", "setting": "[3]; [4]", "value": 1}, {"measurement": "Urinary urgency, TOTAL %", "setting": "[3]; [4]", "value": 35, "unit": "%"}, {"measurement": "patients achieving transfusion independence", "setting": "[3]; 36 patients on intermittent dosing treated for at least 8 consecutive weeks", "value": 39, "unit": "%"}, {"measurement": "Responders (overall transfusion response)", "setting": "[3]; Continuous regimen", "value": 2}, {"measurement": "Responders (overall transfusion response)", "setting": "[3]; Intermittent regimen", "value": 13}, {"measurement": "Responders (overall transfusion response)", "setting": "[3]; Total", "value": 15}, {"measurement": "patients with grade 2+ urinary side effects", "setting": "[3]; continuous dosing arm", "value": "5 of 9"}, {"measurement": "median duration of treatment", "setting": "[3]; continuous dosing, 9 patients", "value": 24, "unit": "weeks"}, {"measurement": "patients achieving transfusion independence", "setting": "[3]; continuous dosing, nine patients (8 treated for at least 8 weeks)", "value": "two"}, {"measurement": "patients progressed", "setting": "[3]; four evaluable RAEB patients", "value": "one"}, {"measurement": "patients achieving bone marrow complete response according to IWG 2006 criteria", "setting": "[3]; four evaluable RAEB patients, one unconfirmed", "value": "three"}, {"measurement": "Response (bone marrow, IWG 2006 criteria)", "setting": "[3]; individual RAEB-1/RAEB-2 patients", "value": "BMCR (2×) and BMCRu"}, {"measurement": "Response week Duration (transfusion independence)", "setting": "[3]; [5]", "value": "≥ 48 weeks and ≥ 37 weeks and 17 weeks and 37+ weeks and 9 weeks and 28 weeks and 30 weeks and 8 weeks and 17+ weeks and 12 weeks and 14+ weeks and 48+ weeks"}, {"measurement": "Response week Onset (transfusion response)", "setting": "[3]; [5]", "value": "1 weeks (8×) and 24 weeks and 14 weeks and 4 weeks and 19 weeks and 13 weeks"}, {"measurement": "patients with urinary grade 2+ toxicity", "setting": "[3]; intermittent dosing with option of dose interruption/reduction", "value": "4/20"}, {"measurement": "median duration of treatment", "setting": "[3]; intermittent dosing, 34 patients", "value": "not reached"}, {"measurement": "patients achieving transfusion independence", "setting": "[3]; intermittent dosing, at least 8 consecutive weeks, 15 patients (conclusion)", "value": 45, "unit": "%"}, {"measurement": "interaction between Rigosertib and ESA", "setting": "[3]; lower-risk transfusion dependent MDS, concomitant ESA", "value": "synergy"}, {"measurement": "patients developing grade 2 urinary toxicity", "setting": "[3]; twelve patients, 560 mg AM and 280 mg PM, median 6 weeks", "value": "one"}, {"measurement": "Bone marrow blast values", "setting": "[3]; week 15 follow-up, individual RAEB-1/RAEB-2 patients", "value": "4% and 10% and 77% and 3%"}, {"measurement": "Bone marrow blast values", "setting": "[3]; week 30 follow-up, individual RAEB-1/RAEB-2 patients", "value": "4% and 9%"}, {"measurement": "Bone marrow blast values", "setting": "[3]; week 45 follow-up, individual RAEB-1/RAEB-2 patients", "value": 5, "unit": "%"}, {"measurement": "Bone marrow blast values", "setting": "[3]; week 60 follow-up, individual RAEB-1/RAEB-2 patients", "value": 5, "unit": "%"}]}]}
